Several values for one entry are separate records, joined by “and”; a condition that tells them apart may be missing. Identical values can stand only once. Inconclusive results and toxic doses are left out. The calls were made as follows: active = survival T/C of 150% or more; inactive = T/C below 125% in these data.
System: CD2F1 mice, L1210 leukemia ip, survival T/C
Assay: NCI In Vivo Anticancer Drug Screen. Data for tumor model L1210 Leukemia (intraperitoneal) in CD2F1 (CDF1) mice
Settings: higher = longer survival
Summary of the method: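 Compound-dosed mice with transplantable tumor versus matched vehicle controls; endpoint ratio T/C reported.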

[1] = endpoint: mean survival time, dose: 100.0 mg/kg/injection, schedule: Q01DX001 (ip), vehicle: saline
[2] = endpoint: mean survival time, dose: 200.0 mg/kg/injection, schedule: Q01DX001 (ip), vehicle: saline
[3] = endpoint: mean survival time, dose: 400.0 mg/kg/injection, schedule: Q01DX001 (ip), vehicle: saline
[4] = endpoint: mean survival time, dose: 100.0 mg/kg/injection, schedule: Q04DX003 (ip), vehicle: Klucel (hydroxypropylcellulose) (HPC)
[5] = endpoint: mean survival time, dose: 200.0 mg/kg/injection, schedule: Q04DX003 (ip), vehicle: Klucel (hydroxypropylcellulose) (HPC)
[6] = endpoint: mean survival time, dose: 400.0 mg/kg/injection, schedule: Q04DX003 (ip), vehicle: Klucel (hydroxypropylcellulose) (HPC)
[7] = endpoint: mean survival time, dose: 100.0 mg/kg/injection, schedule: Q01DX001 (ip), vehicle: saline with Tween-80
[8] = endpoint: mean survival time, dose: 200.0 mg/kg/injection, schedule: Q01DX001 (ip), vehicle: saline with Tween-80
[9] = endpoint: mean survival time, dose: 400.0 mg/kg/injection, schedule: Q01DX001 (ip), vehicle: saline with Tween-80
[10] = endpoint: mean survival time, dose: 100.0 mg/kg/injection, schedule: Q04DX002 (ip), vehicle: saline with Tween-80
[11] = endpoint: mean survival time, dose: 200.0 mg/kg/injection, schedule: Q04DX002 (ip), vehicle: saline with Tween-80
[12] = endpoint: mean survival time, dose: 400.0 mg/kg/injection, schedule: Q04DX002 (ip), vehicle: saline with Tween-80
[13] = endpoint: mean survival time, dose: 100.0 mg/kg/injection, schedule: Q04DX003 (ip), vehicle: saline with Tween-80
[14] = endpoint: mean survival time, dose: 200.0 mg/kg/injection, schedule: Q04DX003 (ip), vehicle: saline with Tween-80
[15] = endpoint: mean survival time, dose: 100.0 mg/kg/injection, schedule: Q04DX003 (ip), vehicle: saline
[16] = endpoint: mean survival time, dose: 200.0 mg/kg/injection, schedule: Q04DX003 (ip), vehicle: saline
[17] = endpoint: mean survival time, dose: 400.0 mg/kg/injection, schedule: Q04DX003 (ip), vehicle: saline
[18] = endpoint: mean survival time, dose: 200.0 mg/kg/injection, schedule: Q01DX009 (ip), vehicle: saline with Tween-80
[19] = endpoint: mean survival time, dose: 400.0 mg/kg/injection, schedule: Q01DX009 (ip), vehicle: saline with Tween-80
[20] = endpoint: mean survival time, dose: 100.0 mg/kg/injection, schedule: Q01DX009 (ip), vehicle: saline with Tween-80

Measured: T/C

O=[N+]([O-])c1ccc(-c2ccccc2)c([As](=O)(O)O)c1
inactive: endpoint: mean survival time, dose: 6.25 mg/kg/injection, schedule: Q04DX002 (ip), vehicle: saline with Tween-80 124 % of control | endpoint: mean survival time, dose: 12.5 mg/kg/injection, schedule: Q04DX002 (ip), vehicle: saline with Tween-80 116 % of control | endpoint: mean survival time, dose: 25.0 mg/kg/injection, schedule: Q04DX002 (ip), vehicle: saline with Tween-80 104 % of control

O=C(O)c1ccccc1.[Pb]
inactive: [1] 94 % of control | [2] 102 % of control | [3] 96 % of control

Cc1c(Cl)cccc1N=Cc1ccc2c(c1)OCO2
inactive: [4] 102 % of control | [5] 96 % of control | [6] 102 % of control

O=CN(Cc1ccccc1)c1cc([N+](=O)[O-])ccc1OCc1ccccc1
inactive: [1] 96 % of control | [2] 94 % of control | [3] 100 % of control

CC(=O)OCC1OC(n2c(Cl)nc3c(Cl)nc(N)nc32)C(OC(C)=O)C1OC(C)=O (stereo not given)
inactive: [1] 100 % of control | [2] 100 % of control | [3] 97 % of control

O=c1[nH]c(=O)n(C2CC(O)C(CO)O2)cc1-c1ccccc1 (stereo not given)
inactive: endpoint: mean survival time, dose: 12.5 mg/kg/injection, schedule: Q01DX005 (ip), vehicle: distilled water + Tween-80 98 % of control | endpoint: mean survival time, dose: 25.0 mg/kg/injection, schedule: Q01DX005 (ip), vehicle: distilled water + Tween-80 95 % of control | endpoint: mean survival time, dose: 50.0 mg/kg/injection, schedule: Q01DX005 (ip), vehicle: distilled water + Tween-80 98 % of control | endpoint: mean survival time, dose: 100.0 mg/kg/injection, schedule: Q01DX005 (ip), vehicle: distilled water + Tween-80 95 % of control | endpoint: mean survival time, dose: 200.0 mg/kg/injection, schedule: Q01DX005 (ip), vehicle: distilled water + Tween-80 98 % of control

CC(C)CC(CC(C)C)=NNc1ccc([N+](=O)[O-])cc1[N+](=O)[O-]
inactive: [1] 100 % of control | [2] 103 % of control | [3] 100 % of control

COC(=O)CC1(C(=O)OC)Nc2ccc(Br)cc2C(=O)O1 (stereo not given)
inactive: [7] 96 % of control | [8] 96 % of control | [9] 94 % of control

N#C/C=C/C#N
inactive: endpoint: mean survival time, dose: 0.15 mg/kg/injection, schedule: Q01DX009 (ip), vehicle: saline 105 % of control | endpoint: mean survival time, dose: 0.3 mg/kg/injection, schedule: Q01DX009 (ip), vehicle: saline 102 % of control | endpoint: mean survival time, dose: 0.6 mg/kg/injection, schedule: Q01DX009 (ip), vehicle: saline 102 % of control

CC(c1ccccc1)n1cncc1C(=O)NN(C)C (stereo not given)
inactive: [7] 96 % of control | [8] 93 % of control | [9] 91 % of control

CCCCN1C(=O)c2c(Cl)c(Cl)c(Cl)c(Cl)c2C1=O
inactive: endpoint: mean survival time, dose: 25.0 mg/kg/injection, schedule: Q04DX002 (ip), vehicle: other 90 % of control | endpoint: mean survival time, dose: 50.0 mg/kg/injection, schedule: Q04DX002 (ip), vehicle: other 90 % of control | endpoint: mean survival time, dose: 100.0 mg/kg/injection, schedule: Q04DX002 (ip), vehicle: other 86 % of control

Cc1ccccc1CN1C2=NCCN2C(=O)C2=C1CCN(S(=O)(=O)c1ccc(Cl)c(S(N)(=O)=O)c1)C2
inactive: endpoint: median survival time, dose: 25.0 mg/kg/injection, schedule: Q01DX009 (ip), vehicle: saline 95 % of control | endpoint: median survival time, dose: 50.0 mg/kg/injection, schedule: Q01DX009 (ip), vehicle: saline 100 % of control | endpoint: median survival time, dose: 100.0 mg/kg/injection, schedule: Q01DX009 (ip), vehicle: saline 93 % of control | endpoint: median survival time, dose: 400.0 mg/kg/injection, schedule: Q01DX009 (ip), vehicle: saline 88 % of control

COc1ccccc1NC(=O)OCC(Cl)(Cl)Cl
inactive: [10] 103 % of control | [11] 100 % of control | [12] 95 % of control

CCOC(=O)/C=C/c1ccc(O)cc1
inactive: [4] 102 % of control | [5] 98 % of control | [6] 98 % of control

CC(=O)N(C)N=Nc1ccc(C(C)C)cc1
inactive: endpoint: mean survival time, dose: 9.37 mg/kg/injection, schedule: Q04DX003 (ip), vehicle: Klucel (hydroxypropylcellulose) (HPC) 97 % of control | endpoint: median survival time, dose: 2.3 mg/kg/injection, schedule: Q01DX009 (ip), vehicle: Klucel (hydroxypropylcellulose) (HPC) 116 % of control | endpoint: median survival time, dose: 4.6 mg/kg/injection, schedule: Q01DX009 (ip), vehicle: Klucel (hydroxypropylcellulose) (HPC) 110 % of control | endpoint: median survival time, dose: 9.37 mg/kg/injection, schedule: Q01DX009 (ip), vehicle: Klucel (hydroxypropylcellulose) (HPC) 116 % of control

Cn1c2c(c3ccccc31)C(=O)CC2(C)C
inactive: endpoint: mean survival time, dose: 50.0 mg/kg/injection, schedule: Q04DX003 (ip), vehicle: saline with Tween-80 103 % of control | [7] 93 % of control | [13] 89 % of control | [8] 98 % of control

COC(=O)/N=C(/N)SC
inactive: [13] 100 % of control | [14] 106 % of control | endpoint: mean survival time, dose: 400.0 mg/kg/injection, schedule: Q04DX003 (ip), vehicle: saline with Tween-80 97 % of control

COc1cc(C(Cl)C2OC(CO)C(O)C2O)nc(C)n1 (stereo not given)
inactive: endpoint: median survival time, dose: 18.38 mg/kg/injection, schedule: Q01DX005 (ip), vehicle: saline 110 % of control | endpoint: median survival time, dose: 26.0 mg/kg/injection, schedule: Q01DX005 (ip), vehicle: saline 103 % of control | endpoint: median survival time, dose: 36.75 mg/kg/injection, schedule: Q01DX005 (ip), vehicle: saline 97 % of control | endpoint: median survival time, dose: 52.0 mg/kg/injection, schedule: Q01DX005 (ip), vehicle: saline 102 % of control | endpoint: median survival time, dose: 73.5 mg/kg/injection, schedule: Q01DX005 (ip), vehicle: saline 100 % of control | endpoint: median survival time, dose: 104.0 mg/kg/injection, schedule: Q01DX005 (ip), vehicle: saline 107 % of control | endpoint: median survival time, dose: 147.0 mg/kg/injection, schedule: Q01DX005 (ip), vehicle: saline 103 % of control | endpoint: median survival time, dose: 208.0 mg/kg/injection, schedule: Q01DX005 (ip), vehicle: saline 101 % of control

CCC(CNCCC(=O)O)(C(=O)O)C(=O)O
inactive: [10] 98 % of control | [11] 98 % of control | [12] 90 % of control

O=C1C(n2ccc(=O)n(C(=O)c3ccccc3)c2=O)CCN1CCO (stereo not given)
inactive: [1] 102 % of control | [2] 100 % of control | [3] 102 % of control

COc1cc(/C=C\[N+](=O)[O-])c([N+](=O)[O-])cc1OCc1ccccc1
inactive: [7] 94 % of control | [8] 97 % of control

COc1ccc(-c2nc(N)nc3c2CN(CCCC(=O)O)C3=O)cc1
inactive: [15] 98 % of control | [16] 98 % of control | [17] 96 % of control

COc1ccc(NC(=O)Nc2cc(Cl)ccc2Cl)cc1
inactive: [18] 88 % of control | [19] 100 % of control

O=C1c2ccccc2C(=O)c2c(Sc3ccccc3)cccc21
inactive: [20] 97 % of control | [18] 93 % of control | [19] 92 % of control

CC(=O)CCCSCCO
inactive: [15] 101 % of control | [16] 97 % of control | [17] 101 % of control

O=[N+]([O-])c1cc[n+]([O-])cc1
inactive: endpoint: mean survival time, dose: 75.0 mg/kg/injection, schedule: Q01DX001 (ip), vehicle: saline 106 % of control

O=c1[nH]ccc2occc12
inactive: endpoint: mean survival time, dose: 50.0 mg/kg/injection, schedule: Q01DX009 (ip), vehicle: saline with Tween-80 101 % of control | [20] 102 % of control | [13] 105 % of control | [14] 109 % of control

O=C(O)CCc1nc(-c2cccc(Br)c2)n[nH]1
inactive: [10] 96 % of control | [11] 107 % of control | [12] 103 % of control

CCCCCCCCCCCCOc1ccc(Cl)cc1Sc1cc(Cl)ccc1OCCCCCCCCCCCC
inactive: [7] 92 % of control | [8] 93 % of control | [9] 86 % of control

CCSCCNC1=C(C)C(=O)C2=C(C1=O)[C@H](COC(N)=O)[C@]1(OC)[C@H]3[C@@H](CN21)N3C (stereo not given in full)
inactive: endpoint: mean survival time, dose: 1.5 mg/kg/injection, schedule: Q01DX001 (ip), vehicle: distilled water + Tween-80 103 % of control | endpoint: mean survival time, dose: 3.0 mg/kg/injection, schedule: Q01DX001 (ip), vehicle: distilled water + Tween-80 96 % of control and 103 % of control and 109 % of control | endpoint: mean survival time, dose: 6.0 mg/kg/injection, schedule: Q01DX001 (ip), vehicle: distilled water + Tween-80 104 % of control and 107 % of control and 108 % of control | endpoint: mean survival time, dose: 12.0 mg/kg/injection, schedule: Q01DX001 (ip), vehicle: distilled water + Tween-80 115 % of control and 102 % of control and 110 % of control | endpoint: mean survival time, dose: 24.0 mg/kg/injection, schedule: Q01DX001 (ip), vehicle: distilled water + Tween-80 121 % of control and 124 % of control | endpoint: mean survival time, dose: 48.0 mg/kg/injection, schedule: Q01DX001 (ip), vehicle: distilled water + Tween-80 115 % of control
